# Read-outs that look alike come from different tables or passages of the source.
# Assays:
# [1] = test system: HepG2 (hepatocellular carcinoma); experiment: MTT assay, HepG2; assay type: cell-based; details: Homo sapiens, 72 h
# Method: (§1) The tested compounds were dissolved in DMSO in five, 10-fold dilutions (0.01–100 µM). The cell lines HeLa (cervical carcinoma), SW620 (colorectal adenocarcinoma, metastatic), HepG2 (hepatocellular carcinoma), CFPAC-1 (ductal pancreatic adenocarcinoma), and WI38 (human lung fibroblast cell line), were cultured as monolayers and maintained in Dulbecco’s modified Eagle medium (DMEM) supplemented with 10% fetal bovine serum (FBS), 2 mM L-glutamine, 100 U mL^−1 penicillin and 100 μg mL^−1 streptomycin in a humidified atmosphere with 5% CO2 at 37 °C.
# (§2) The MTT assay was used for evaluation of effects of tested compounds on viability of carcinoma and control cell lines. About 5000 cells per well were seeded onto a series of standard 96-well plates on day 0. Test agents were then added and incubated for further 72 h. Working dilutions of tested compounds were freshly prepared in the growth medium, on the day of testing. The solvent (DMSO) was also tested for eventual inhibitory activity by adjusting its concentration to be the same as in the working concentrations (DMSO concentration never exceeded 0.1%). After 72 h of incubation, the cell growth rate was evaluated by performing the MTT assay: experimentally determined absorbance values were transformed into a cell percentage growth (PG) using the formulas proposed by NIH and described previously. This method directly relies on control cells number at the day of assay because it compares the growth of treated cells with the growth of untreated cells in control wells on the same plate, the results are therefore a percentile difference from the calculated expected value.
# (§3) If, however, all of the tested concentrations produce PGs exceeding the respective reference level of effect (e.g., PG value of 50) for a given cell line, the highest tested concentration is assigned as the default value (in the screening data report that default value is preceded by a “>” sign). Each test point was performed in quadruplicate in three individual experiments. The results were statistically analyzed (Analysis of variance (ANOVA), Tukey post-hoc test at p < 0.05). Finally, the effects of the tested substances were evaluated by plotting the mean percentage growth for each cell type in comparison to control on dose response graphs.
# [2] = MTT assay, WI38 healthy control; assay type: cell-based; details: WI38 human lung fibroblast cells, WI38 healthy control human fibroblast cell line
# Method: as §1, §2, §3
# [3] = test system: CFPAC-1 (ductal pancreatic adenocarcinoma); experiment: MTT assay, CFPAC-1; assay type: cell-based; details: Homo sapiens, 72 h
# Method: as §1, §2, §3
# [4] = test system: HeLa (cervical carcinoma); experiment: MTT assay, HeLa; assay type: cell-based; details: Homo sapiens, 72 h
# Method: as §1, §2, §3
# [5] = test system: SW620 (colorectal adenocarcinoma, metastatic); experiment: MTT assay, SW620; assay type: cell-based; details: Homo sapiens, SW-620, 72 h
# Method: as §1, §2, §3
# [6] = test system: Klebsiella pneumoniae ATCC 10031; experiment: Micro-dilution MIC assay, K. pneumoniae; assay type: cell-based; details: ATCC10031, 24 h at 37 °C
# Method: (§4) Antimicrobial activity of compounds was evaluated in vitro on eight bacterial strains (Escherichia coli ATCC 25922 (ATCC = American Type Culture Collection, Manassas, VA, USA), Pseudomonas aeruginosa ATCC 9027, Proteus hauseri ATCC 13315, Klebsiella pneumoniae ATCC 10031, Staphylococcus aureus ATCC 6538, Bacillus subtilis ATCC 6633, Clostridium sporogenes ATCC 19404 and Micrococcus luteus ATCC 10240) and three fungi (Candida albicans ATCC 10231, Saccharomyces cerevisiae ATCC 9763 and Aspergillus brasiliensis ATCC 16404).
# (§5) Micro-dilution assay was used for determination of tested compounds MIC. A serial dilution method in sterile 96-well microtitre plates was performed. Fresh Mueller–Hinton broth (for bacteria) and Sabouraud dextrose broth (for fungi) were used. In sterile physiological solution, suspensions containing 1.5 × 10^8 CFU mL^−1 for bacteria and 1.5 × 10^7 CFU mL^−1 for fungi were made (according to McFarland). One hundred microliters of broth were added to each well of the plate. Stock solutions of tested compounds were made in DMSO at concentration 10 mg mL^−1, and then 100 μL of the compound stock solution was added to each well of the first column. Double dilution was made in whole row for one tested compound, and repeated for all tested compounds in other rows. Amikacin served as positive control for bacteria, while nystatin served as positive control for fungi. The solvent (DMSO) was used as the negative control. Afterwards, each well was inoculated with 10 μL of microorganism suspension. After incubation, 24 h at 37 °C for bacteria and 48 h at 25 °C for fungi, results were read. The lowest concentration where no growth of microorganism was detected represented MIC.
# [7] = test system: Escherichia coli ATCC 25922; experiment: Micro-dilution MIC assay, E. coli; assay type: cell-based; details: ATCC25922, 24 h at 37 °C
# Method: as §4, §5
# [8] = test system: Proteus hauseri ATCC 13315; experiment: Micro-dilution MIC assay, P. hauseri; assay type: cell-based; details: ATCC13315, 24 h at 37 °C
# Method: as §4, §5
# [9] = test system: Staphylococcus aureus ATCC 6538; experiment: Micro-dilution MIC assay, S. aureus; assay type: cell-based; details: ATCC6538, 24 h at 37 °C
# Method: as §4, §5
# [10] = test system: Bacillus subtilis ATCC 6633; experiment: Micro-dilution MIC assay, B. subtilis; assay type: cell-based; details: ATCC6633, 24 h at 37 °C
# Method: as §4, §5
# [11] = test system: Clostridium sporogenes ATCC 19404; experiment: Micro-dilution MIC assay, C. sporogenes; assay type: cell-based; details: ATCC19404, 24 h at 37 °C
# Method: as §4, §5
# [12] = test system: Pseudomonas aeruginosa ATCC 9027; experiment: Micro-dilution MIC assay, P. aeruginosa; assay type: cell-based; details: ATCC9027, 24 h at 37 °C
# Method: as §4, §5
# [13] = test system: Micrococcus luteus ATCC 10240; experiment: Micro-dilution MIC assay, M. luteus; assay type: cell-based; details: ATCC10240, 24 h at 37 °C
# Method: as §4, §5
# [14] = test system: Aspergillus brasiliensis ATCC 16404; experiment: Micro-dilution MIC assay, A. brasiliensis; assay type: cell-based; details: A. braziliensis, 48 h at 25 °C
# Method: as §4, §5
# [15] = test system: Saccharomyces cerevisiae ATCC 9763; experiment: Micro-dilution MIC assay, S. cerevisiae; assay type: cell-based
# Method: as §4, §5
# [16] = test system: Candida albicans ATCC 10231; experiment: Micro-dilution MIC assay, C. albicans; assay type: cell-based
# Method: as §4, §5
# phospho (Ser 473) Akt [17] = experiment: Western blot, pAkt in HepG2 cells; assay type: cell-based, human; details: IC50 concentration, 24 h and 48 h
# Method: (§6) Protein lysates were lysed in the buffer 50 mM Tris HCl (pH 8), 150 mM NaCl, 1% NP-40, 0.5% sodium deoxycholate, 0.1% SDS and protease and phosphatase inhibitor cocktail (Roche, Basel, Switzerland). A total of 50 μg of proteins were resolved on 10% SDS polyacrylamide gels by use of Mini-protean cell (Bio-Rad, Hercules, CA, USA). Membranes were incubated with primary antibodies against phospho (Tyr 1135) -IGF1 Receptor β (1:1000, rabbit mAb, Cell Signalling Technology, Danvers, MA, USA), phospho (Ser 473) Akt (1:1000, rabbit mAb, Cell Signalling Technology) and α tubulin (1:1000, mouse mAb, Sigma Aldrich) at 4 °C overnight. Secondary antibody linked to anti-mouse was used at 1:1000 (Dako, Santa Clara, CA, USA) and to anti-rabbit at 1:1000 (Dako). Signals were visualized by Western Lightening Chemiluminescence Reagent Plus Kit (Perkin Elmer, USA) on the ImageQuant LAS500 (GE Healthcare, Chicago, IL, USA). Signal intensities of particular bands were normalized with the intensity of the loading control α tubulin and compared in Quantity One software (Bio-Rad). The values are expressed as average value of three independent experiments ± standard error of the mean. Statistical analysis was performed in Microsoft Excel (Microsoft Corporation, Redmond, WA, USA) by using the ANOVA (p < 0.05).
# [18] = test system: phospho (Tyr 1135) -IGF1 Receptor β; experiment: Western blot, IGF1 Receptor β activated form in HeLa cells; assay type: cell-based, human; details: IC50 concentration, 24 and 48 h treatments
# Method: as §6
# phospho (Ser 473) Akt [19] = experiment: Western blot, pAkt in HeLa cells; assay type: cell-based, human; details: IC50 concentration, 24 h and 48 h
# Method: as §6
# [20] = test system: phospho (Tyr 1135) -IGF1 Receptor β; experiment: Western blot, IGF1 Receptor β activated form in HepG2 cells; assay type: cell-based, human; details: IC50 concentration, 24 and 48 h treatments
# Method: as §6
# [21] = Aspergillus brasiliensis, ATCC16404, read-out: MIC
# [22] = Saccharomyces cerevisiae, ATCC9763, 48 h at 25 °C, read-out: MIC
# [23] = Candida albicans, ATCC10231, 48 h at 25 °C, read-out: MIC
SMILES,melting point [°C],IC50 [1] [µM],IC50 at 72 h [2] [µM],IC50 [3] [µM],IC50 [4] [µM],IC50 [5] [µM],other results
"COc1cc(-c2nc3c(C)c(O)cc(C(C)C)c3o2)ccc1O [1i, 2-(4-Hydroxy-3-methoxyphenyl)-4-methyl-7-isopropyl-1,3-benzoxazole-5-ol]",168,4.58,9.32,40.6,6.38,55.3,–
"COc1ccc(-c2nc3c(C)c(O)cc(C(C)C)c3o2)cc1 [1h, 2-(4-Methoxyphenyl)-4-methyl-7-isopropyl-1,3-benzoxazole-5-ol]",178,> 100,75.9,97,> 100,> 100,–
"NCC[C@H](O)C(=O)N[C@@H]1C[C@H](N)[C@@H](O[C@H]2O[C@H](CN)[C@@H](O)[C@H](O)[C@H]2O)[C@H](O)[C@H]1O[C@H]1O[C@H](CO)[C@@H](O)[C@H](N)[C@H]1O [Amikacin, amikacin]",–,–,–,–,–,–,MIC [6]: 13.7 µM; MIC [7]: 8.54 µM; MIC [8]: 11.9 µM; MIC [9]: 18.8 µM; MIC [10]: 71.7 µM; MIC [11]: 25.6 µM; MIC [12]: 85.4 µM; MIC [13]: 3.42 µM
"C[C@@H]1[C@H](O)[C@@H](C)/C=C/C=C/CC/C=C/C=C/C=C/C=C/C(O[C@H]2O[C@H](C)[C@@H](O)[C@H](N)[C@@H]2O)CC2O[C@](O)(CC(O)C(O)CCC(O)CC(O)CC(O)CC(=O)O[C@H]1C)CC(O)C2C(=O)O (stereo partly shown) [Nystatin, nystatin]",–,–,–,–,–,–,MIC [14]: 1350 µM; MIC ([15]; 48 h at 25 °C): 1350 µM; MIC ([16]; 48 h at 25 °C): 2700 µM
"Cc1c(O)cc(C(C)C)c2oc(-c3ccc(Br)cc3)nc12 [1d, 2-(4-Bromophenyl)-4-methyl-7-isopropyl-1,3-benzoxazole-5-ol]",190,30.5,57.6,34.5,30.1,51.5,–
"CC1=C(N)C(=O)C(C(C)C)=CC1=O [ATQ, 3-Aminothymoquinone]",–,8.26,9.41,30.9,15.7,25.8,"MIC [6]: 435 µM; MIC [14, 21]: 880 µM; MIC [7]: 112 µM; MIC [8]: 218 µM; MIC [15, 22]: 220 µM; MIC [9]: 112 µM; MIC [16, 23]: 1750 µM; MIC [10]: 218 µM; MIC [11]: 435 µM; MIC [12]: 218 µM; MIC [13]: 59.7 µM"
"Cc1c(O)cc(C(C)C)c2oc(-c3ccc([N+](=O)[O-])cc3)nc12 [1g, 4-Methyl-2-(4-nitrophenyl)-7-isopropyl-1,3-benzoxazole-5-ol]",188,> 100,6.21,> 100,> 100,54.9,–
"Cc1c(O)cc(C(C)C)c2oc(-c3ccc(Cl)cc3)nc12 [1e, 2-(4-Chlorophenyl)-4-methyl-7-isopropyl-1,3-benzoxazole-5-ol]",–,39.5,> 100,49.5,42.7,79.9,"inhibition of Akt phosphorylation (western blot) (phospho (Ser 473) Akt [17]): weak, time and concentration dependent inhibition; IGF1 Receptor β activated form expression (western blot) [18]: no significant changes; inhibition of Akt phosphorylation (western blot) (phospho (Ser 473) Akt [19]): weak, time and concentration dependent inhibition; IGF1 Receptor β activated form expression (western blot) [20]: no significant changes"
"Cc1c(O)cc(C(C)C)c2oc(-c3cccs3)nc12 [1j, 4-Methyl-7-isopropyl-2-(thiophene-2-yl)-1,3-benzoxazole-5-ol]",152,7.28,9.97,27,10.3,31.6,–
"Cc1c(O)cc(C(C)C)c2oc(-c3ccccc3O)nc12 [1b, 2-(2-Hydroxyphenyl)-4-methyl-7-isopropyl-1,3-benzoxazole-5-ol]",172,32.3,29.8,31,25,43.7,–
"Cc1c(O)cc(C(C)C)c2oc(-c3ccccc3)nc12 [1a, 4-Methyl-2-phenyl-7-isopropyl-1,3-benzoxazole-5-ol]",164,39.3,19.9,90.2,32.2,> 100,–
"CC1=CC(=O)C(C(C)C)=CC1=O [TQ, Thymoquinone]",–,24,19.8,48.3,28.9,40,"MIC [6]: 59.7 µM; MIC [14, 21]: 3810 µM; MIC [7]: 29.8 µM; MIC [8]: 29.8 µM; MIC [15, 22]: 1900 µM; MIC [9]: 29.8 µM; MIC [16, 23]: 3810 µM; MIC [10]: 59.7 µM; MIC [11]: 122 µM; MIC [12]: 59.7 µM; MIC [13]: 59.7 µM"

# Source: article PMC6321291, “Synthesis, Biological Evaluation and Docking Studies of Benzoxazoles Derived from Thymoquinone” (Molecules, 2018)
